Biological target: T1, pKSI (Δ5-3-ketosteroid isomerase from Pseudomonas putida) (Pseudomonas putida, UniProt P07445, D40N)
T1 sequence (P07445 1-131 D40N): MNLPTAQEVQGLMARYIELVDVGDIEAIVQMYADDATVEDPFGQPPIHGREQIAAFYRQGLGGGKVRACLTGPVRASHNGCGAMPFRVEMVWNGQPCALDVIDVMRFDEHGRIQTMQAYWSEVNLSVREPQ
Experiment: fluorescence emission, linear combination of bound and free spectra
Assay type: binding

Structure (SMILES) | Kd [µM]
N#Cc1ccc2cc(O)ccc2c1 [6-cyano-2-naphthol] | 2 ± 1
Oc1ccc2cc(Br)ccc2c1 [6-bromo-2-naphthol] | 4 ± 1
Oc1ccc2cc(O)ccc2c1 [2,6-dihydroxynaphthalene] | 20 ± 6
COc1ccc2cc(O)ccc2c1 [6-methoxy-2-naphthol] | 10 ± 5
